Laboratory results taken from patent USRE49850E1, “N-(pyridin-2-yl)-4-(thiazol-5-yl)pyrimidin-2-amine derivatives as therapeutic compounds” (AUCENTRA THERAPEUTICS PTY LTD, priority 2015, dated 2024).

Columns and labels:
MDA-MB-453 = test: Cell viability assay (MTT, solid tumour cell line) MDA-MB-453; type: cell-based, human; details: Homo sapiens, MDA-MB-453, 72 h; read-out: Anti-proliferative activity GI50 MDA-MB-453
Excerpt: (§1) Compounds from Example 1 were subjected to a standard MTT (3-(4,5-dimethylthiazol-2-yl)-2,5-diphenyltetrazolium bromide) and resazurin assays on solid tumour cell lines and leukemia cell lines, respectively, as previously reported (Wang S et al., J Med Chem 47:1662-1675, 2004 and Diab S. et al. CheMedChem 9:962-972, 2014).

CDK7H = CDK7H (Homo sapiens, UniProt P50613); test: Kinase assay CDK7H (radiometric profiling service); type: biochemical; details: for Ki: apparent Ki calculated from Km (ATP) and IC50, read-out: CDK inhibition Ki CDK7H
Protocol: Eurofins Pharma Discovery or Reaction Biology Corporation Kinase Profiler services were used to measure inhibition of CDKs and other kinases by radiometric assay. Inhibition of CDK4/D1, CDK6/D3 and CDK9/T1 were also determined in-house using ADP Glo Kinase assays (Promega Corporation, Madison, USA). Briefly, the kinase reaction for CDK4/D1 and CDK6/D3 was performed with kinase reaction buffer ([…] Tris base pH 7.5, 20 mM MgCl2, 0.4 mM DTT), 0.1 mg/ml BSA and RB-CTF substrate (retinoblastoma protein1 C-terminal fraction). For CDK9/CyclinT1, the kinase reaction was performed with standard assay buffer and Kinase Dilution Buffer and RBER-IRStide substrate. Serial dilutions of 1:3 were prepared for test compounds for 10 concentrations (from 10 μM to 0.5 nM). The kinase reactions were started by addition of ATP, incubated for 40 min at 37° C. and then stopped by adding 10 μL of ADP Glo reagent. After incubation at room temperature in the dark for 40 min, 20 μL of kinase detection reagent was added per well and incubated for 40 min. Luminescence was measured using an EnVision Multilabel plate reader (PerkinElmer, Buckinghamshire, UK). Positive and negative controls were perfonned in the presence and absence of CDK kinases, respectively. Half-maximal inhibition (IC50) values were calculated using a 4-parameter logistic non-linear regression model with Graphpad prism (Version 6.0). Apparent inhibition constants (Ki) values were calculated from Km (ATP) and IC50 values for the respective kinases.

CDK6D3 = biological target: T1, CDK6D3 (Homo sapiens, UniProt Q00534); test: Kinase assay CDK6/D3 (radiometric or ADP Glo); type: biochemical; details: apparent Ki calculated from Km (ATP) and IC50; read-out: CDK inhibition Ki CDK6D3
T1 construct: purchased Eurofins Pharma Discovery or Reaction Biology Corporation (service)
Summary of the method: (§2)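 Radiometric inhibition data for CDKs came from Eurofins or Reaction Biology profiling services; CDK4/D1 was also run in-house by ADP-Glo in […] pH 7.5, 20 mM MgCl2, 0.4 mM DTT, 0.1 mg/ml BSA with RB-CTF substrate, 40 min at 37 °C after ATP start. Ten-point 1:3 dilutions (10 μM–0.5 nM); four-parameter IC50, Ki from IC50 and ATP Km.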

CDK4D1 = biological target: T2, CDK4D1 (Homo sapiens, UniProt P11802); test: Kinase assay CDK4/D1 (radiometric or ADP Glo); type: biochemical; details: apparent Ki calculated from Km (ATP) and IC50; read-out: CDK inhibition Ki CDK4D1
T2 construct: purchased Eurofins Pharma Discovery or Reaction Biology Corporation (service)
Summary of the method: as §2

CDK9T1 = biological target: T3, CDK9T1 (Homo sapiens, UniProt P50750); test: Kinase assay CDK9/T1 (radiometric or ADP Glo); type: biochemical; details: for Ki: apparent Ki calculated from Km (ATP) and IC50, read-out: CDK inhibition Ki CDK9T1
T3 construct: purchased Eurofins Pharma Discovery or Reaction Biology Corporation (service)
Summary of the method: as §2

MV4-11 = test: Cell viability assay (resazurin, leukemia cell line) MV4-11; type: cell-based, human; details: Homo sapiens, MV4-11, 72 h; read-out: Anti-proliferative activity GI50 MV4-11
Excerpt: as §1

CDK 2A = CDK 2A (Homo sapiens, UniProt P24941); test: Kinase assay CDK2A (radiometric profiling service); type: biochemical; details: apparent Ki calculated from Km (ATP) and IC50; read-out: CDK inhibition Ki CDK 2A
Summary of the method: as §2

CDK1B = CDK1B (Homo sapiens, UniProt P06493); test: Kinase assay CDK1B (radiometric profiling service); type: biochemical; details: apparent Ki calculated from Km (ATP) and IC50; read-out: CDK inhibition Ki CDK1B
Summary of the method: as §2

CDK1B, sequence (P06493 whole entry): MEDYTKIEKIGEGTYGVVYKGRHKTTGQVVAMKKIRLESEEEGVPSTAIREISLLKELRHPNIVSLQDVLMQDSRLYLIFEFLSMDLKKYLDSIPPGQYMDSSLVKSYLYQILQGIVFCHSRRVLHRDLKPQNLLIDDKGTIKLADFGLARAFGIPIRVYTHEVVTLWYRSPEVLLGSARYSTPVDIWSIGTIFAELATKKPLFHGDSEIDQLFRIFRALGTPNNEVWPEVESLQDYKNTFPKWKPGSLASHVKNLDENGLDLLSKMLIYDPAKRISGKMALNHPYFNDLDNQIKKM
CDK1B, sequence (P14635 whole entry partner): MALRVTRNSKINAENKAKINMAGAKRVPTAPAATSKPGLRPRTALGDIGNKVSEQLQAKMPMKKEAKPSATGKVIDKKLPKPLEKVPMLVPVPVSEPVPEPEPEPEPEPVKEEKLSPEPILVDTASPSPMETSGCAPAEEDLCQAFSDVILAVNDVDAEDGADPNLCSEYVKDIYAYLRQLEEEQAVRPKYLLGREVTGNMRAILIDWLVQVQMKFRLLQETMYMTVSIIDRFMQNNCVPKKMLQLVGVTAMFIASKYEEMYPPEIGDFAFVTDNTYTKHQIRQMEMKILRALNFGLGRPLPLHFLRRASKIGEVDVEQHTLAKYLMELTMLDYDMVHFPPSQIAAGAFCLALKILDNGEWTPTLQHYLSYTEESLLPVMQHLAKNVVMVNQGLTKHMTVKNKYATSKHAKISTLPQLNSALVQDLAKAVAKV
T1 sequence (Q00534 whole entry): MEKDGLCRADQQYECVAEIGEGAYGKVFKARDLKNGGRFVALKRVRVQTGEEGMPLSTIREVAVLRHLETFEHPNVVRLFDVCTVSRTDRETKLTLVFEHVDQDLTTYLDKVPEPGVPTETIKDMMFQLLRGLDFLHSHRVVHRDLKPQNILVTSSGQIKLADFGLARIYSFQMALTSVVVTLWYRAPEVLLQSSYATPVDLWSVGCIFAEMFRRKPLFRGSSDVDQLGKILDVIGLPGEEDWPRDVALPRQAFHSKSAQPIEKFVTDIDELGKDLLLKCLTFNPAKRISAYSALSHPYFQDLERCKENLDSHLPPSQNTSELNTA
T1 sequence (P30281 whole entry partner): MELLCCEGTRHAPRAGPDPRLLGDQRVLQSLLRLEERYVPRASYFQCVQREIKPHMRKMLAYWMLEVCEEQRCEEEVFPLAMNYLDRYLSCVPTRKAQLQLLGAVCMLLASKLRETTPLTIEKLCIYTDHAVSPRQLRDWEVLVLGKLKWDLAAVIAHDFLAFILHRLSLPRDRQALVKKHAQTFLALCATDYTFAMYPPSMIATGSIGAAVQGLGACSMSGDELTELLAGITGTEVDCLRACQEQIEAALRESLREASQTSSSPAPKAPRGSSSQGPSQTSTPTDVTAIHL
T2 sequence (P11802 whole entry): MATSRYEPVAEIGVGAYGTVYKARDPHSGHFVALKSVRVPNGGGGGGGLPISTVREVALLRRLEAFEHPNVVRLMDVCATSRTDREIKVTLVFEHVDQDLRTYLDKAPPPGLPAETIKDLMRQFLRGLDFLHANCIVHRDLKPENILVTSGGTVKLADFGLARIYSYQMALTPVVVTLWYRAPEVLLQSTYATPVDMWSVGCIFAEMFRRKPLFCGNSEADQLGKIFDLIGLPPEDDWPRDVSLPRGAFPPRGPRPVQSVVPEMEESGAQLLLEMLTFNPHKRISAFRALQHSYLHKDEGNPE
T2 sequence (P24385 whole entry partner): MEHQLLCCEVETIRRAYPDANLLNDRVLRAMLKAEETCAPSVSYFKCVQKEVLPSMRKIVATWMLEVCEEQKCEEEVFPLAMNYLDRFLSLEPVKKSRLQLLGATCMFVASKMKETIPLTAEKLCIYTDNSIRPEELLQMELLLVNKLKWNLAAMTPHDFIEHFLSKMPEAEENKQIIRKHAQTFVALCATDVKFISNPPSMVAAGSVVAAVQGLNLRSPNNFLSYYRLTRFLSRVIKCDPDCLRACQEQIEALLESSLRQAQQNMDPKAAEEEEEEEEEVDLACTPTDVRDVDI
T3 sequence (P50750 whole entry): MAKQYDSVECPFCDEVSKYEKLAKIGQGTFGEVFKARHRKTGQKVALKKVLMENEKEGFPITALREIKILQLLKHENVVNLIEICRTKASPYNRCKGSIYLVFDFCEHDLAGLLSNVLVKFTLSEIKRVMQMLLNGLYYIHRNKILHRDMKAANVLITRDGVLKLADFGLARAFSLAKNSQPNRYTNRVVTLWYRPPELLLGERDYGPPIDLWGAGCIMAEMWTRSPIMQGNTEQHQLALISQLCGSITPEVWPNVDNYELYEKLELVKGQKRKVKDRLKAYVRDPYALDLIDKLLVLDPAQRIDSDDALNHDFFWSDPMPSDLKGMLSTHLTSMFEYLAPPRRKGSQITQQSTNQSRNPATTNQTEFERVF
T3 sequence (O60563 whole entry partner): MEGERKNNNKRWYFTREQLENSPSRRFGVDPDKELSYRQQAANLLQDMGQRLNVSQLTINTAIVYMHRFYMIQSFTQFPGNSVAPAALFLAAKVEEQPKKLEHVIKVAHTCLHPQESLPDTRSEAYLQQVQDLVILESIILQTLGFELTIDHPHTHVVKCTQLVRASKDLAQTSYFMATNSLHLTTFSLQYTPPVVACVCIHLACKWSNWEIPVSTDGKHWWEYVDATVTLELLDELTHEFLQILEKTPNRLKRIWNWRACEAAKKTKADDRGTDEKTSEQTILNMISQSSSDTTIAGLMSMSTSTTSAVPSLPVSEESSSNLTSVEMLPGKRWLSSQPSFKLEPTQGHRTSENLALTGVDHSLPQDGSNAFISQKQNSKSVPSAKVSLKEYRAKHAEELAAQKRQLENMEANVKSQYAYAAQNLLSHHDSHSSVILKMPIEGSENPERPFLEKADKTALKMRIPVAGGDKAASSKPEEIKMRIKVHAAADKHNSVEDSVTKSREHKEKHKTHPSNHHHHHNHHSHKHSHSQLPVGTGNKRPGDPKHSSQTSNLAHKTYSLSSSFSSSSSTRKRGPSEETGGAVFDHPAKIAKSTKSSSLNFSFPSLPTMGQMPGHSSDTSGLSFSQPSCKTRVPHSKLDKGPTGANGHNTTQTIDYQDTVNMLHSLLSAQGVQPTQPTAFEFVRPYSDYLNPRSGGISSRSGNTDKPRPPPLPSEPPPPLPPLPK
CDK7H, sequence (P50613 whole entry): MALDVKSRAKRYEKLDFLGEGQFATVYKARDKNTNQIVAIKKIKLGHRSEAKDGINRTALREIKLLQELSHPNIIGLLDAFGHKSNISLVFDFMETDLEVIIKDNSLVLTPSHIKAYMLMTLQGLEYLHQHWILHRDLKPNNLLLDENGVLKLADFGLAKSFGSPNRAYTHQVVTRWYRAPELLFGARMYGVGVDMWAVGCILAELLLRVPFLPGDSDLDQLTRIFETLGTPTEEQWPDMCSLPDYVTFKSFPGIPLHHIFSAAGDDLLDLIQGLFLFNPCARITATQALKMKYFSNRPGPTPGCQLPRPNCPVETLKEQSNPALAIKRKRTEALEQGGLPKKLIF
CDK7H, sequence (P51946 whole entry partner): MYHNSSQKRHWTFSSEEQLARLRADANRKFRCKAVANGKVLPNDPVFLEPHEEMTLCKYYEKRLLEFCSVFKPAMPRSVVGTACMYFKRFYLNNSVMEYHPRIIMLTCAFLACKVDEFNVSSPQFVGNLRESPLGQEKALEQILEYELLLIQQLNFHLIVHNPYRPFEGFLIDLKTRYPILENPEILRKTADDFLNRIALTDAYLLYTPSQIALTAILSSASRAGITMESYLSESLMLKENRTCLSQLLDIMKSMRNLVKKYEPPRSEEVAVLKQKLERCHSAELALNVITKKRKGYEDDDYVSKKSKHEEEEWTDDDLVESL
CDK7H, sequence (P51948 whole entry partner): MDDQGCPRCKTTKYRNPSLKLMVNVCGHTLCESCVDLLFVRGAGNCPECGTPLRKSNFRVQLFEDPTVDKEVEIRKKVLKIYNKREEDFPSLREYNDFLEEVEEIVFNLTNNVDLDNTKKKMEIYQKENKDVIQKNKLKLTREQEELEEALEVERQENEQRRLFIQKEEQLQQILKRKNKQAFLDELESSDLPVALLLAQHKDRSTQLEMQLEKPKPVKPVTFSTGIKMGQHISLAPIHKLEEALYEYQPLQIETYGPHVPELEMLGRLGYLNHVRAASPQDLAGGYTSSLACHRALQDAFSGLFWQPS

Row | SMILES | GI50 (MDA-MB-453) [nM] | Ki (CDK7H) [nM] | Ki (CDK6D3) [nM] | Ki (CDK4D1) [nM] | Ki (CDK9T1) [nM] | GI50 (MV4-11) [nM] | Ki (CDK 2A) [nM] | Ki (CDK1B) [nM] | remaining activity at 10 µM (CDK7H; compound at 10 μM, read-out: % remaining enzymatic activity at 10 μM CDK7H) [%] | remaining activity at 10 µM (CDK9T1; compound at 10 μM, read-out: % remaining enzymatic activity at 10 μM CDK9T1) [%]
1 | CC(=O)N1CCN(c2ccc(Nc3ncc(C#N)c(-c4sc(C)nc4C)n3)nc2)CC1 [Compound 6, 2-((5-(4-acetylpiperazin-1-yl)pyridin-2-yl)amino)-4-(2,4-dimethylthiazol-5-yl)pyrimidine-5-carbonitrile] | > 10000 | > 5000 | 201 | 119 | > 5000 | 2130 ± 969 | > 5000 | > 5000 |  | 
2 | CCc1nc(C)c(-c2ccnc(Nc3ccc(N4CCNCC4)cn3)n2)s1 [Compound 7, 4-(2-ethyl-4-methylthiazol-5-yl)-N-(5-(piperazin-1-yl)pyridin-2-yl)pyrimidin-2-amine] | 3860 ± 220 | > 5000 | 237 | 59 | > 5000 | 606 ± 150 | 1710 | > 5000 |  | 
3 | Cc1nc(C(C)C)sc1-c1ccnc(Nc2ccc(N3CCN(C)CC3)cn2)n1 [Compound 14, 4-(2-isopropyl-4-methylthiazol-5-yl)-N-(5-(4-methylpiperazin-1-yl)pyridin-2-yl)pyrimidin-2-amine] | > 10000 | > 5000 | 29 | 10 | 4180 | 596 ± 231 | 287 | 3410 |  | 
4 | CC(=O)N1CCN(c2ccc(Nc3nccc(-c4sc(C(C)C)nc4C)n3)nc2)CC1 [Compound 16, 1-(4-(6-((4-(2-isopropyl-4-methylthiazol-5-yl)pyrimidin-2-yl)amino)pyridin-3-yl)piperazin-1-yl)ethan-1-one] | > 10000 | > 5000 | 209 | 62 | > 5000 | 457 ± 122 | 246 | 4850 |  | 
5 | COc1nc(C)c(-c2ccnc(Nc3ccc(N4CCN(C)CC4)cn3)n2)s1 [Compound 19, 4-(2-methoxy-4-methylthiazol-5-yl)-N-(5-(4-methylpiperazin-1-yl)pyridin-2-yl)pyrimidin-2-amine] | > 10000 | > 5000 | 935 | 310 | 4760 | 3520 ± 1040 | 3650 | > 5000 |  | 
6 | CSc1nc(C)c(-c2ccnc(Nc3ccc(N4CCNCC4)cn3)n2)s1 [Compound 20, 4-(4-Methyl-2-(methylthio)thiazol-5-yl)-N-(5-(piperazin-1-yl)pyridin-2-yl)pyrimidin-2-amine] | 3140 ± 173 | > 5000 | 20 | 5 | 4530 | 671 ± 91 | 720 | > 5000 |  | 
7 | CSc1nc(C)c(-c2ccnc(Nc3ccc(N4CCN(C)CC4)cn3)n2)s1 [Compound 21, 4-(4-methyl-2-(methylthio)thiazol-5-yl)-N-(5-(4-methylpiperazin-1-yl)pyridin-2-yl)pyrimidin-2-amine] | 7160 ± 886 | > 5000 | 42 | 7 | > 5000 | 456 ± 66 | 2700 | > 5000 |  | 
8 | CSc1nc(C)c(-c2ccnc(Nc3ccc(N4CCN(C(C)=O)CC4)cn3)n2)s1 [Compound 22, 1-(4-(6-((4-(4-methyl-2-(methylthio)thiazol-5-yl)pyrimidin-2-yl)amino)pyridin-3-yl)piperazin-1-yl)ethan-1-one] | > 10000 |  | 1950 | 190 |  | 2510 ± 432 | 4760 | > 5000 | 86 | 80
9 | Cc1nc(SC(C)C)sc1-c1ccnc(Nc2ccc(N3CCN(C)CC3)cn2)n1 [Compound 24, 4-(2-(isopropylthio)-4-methylthiazol-5-yl)-N-(5-(4-methylpiperazin-1-yl)pyridin-2-yl)pyrimidin-2-amine] | 4880 ± 214 | > 5000 | 15 | 1 | 4610 | 66 ± 19 | 180 | 3990 |  | 

Stronger by GI50 (MDA-MB-453), values ahead:

Row | GI50 (MDA-MB-453) [nM] | Ki (CDK7H) [nM] | Ki (CDK6D3) [nM] | Ki (CDK4D1) [nM] | Ki (CDK9T1) [nM] | GI50 (MV4-11) [nM] | Ki (CDK 2A) [nM] | Ki (CDK1B) [nM] | remaining activity at 10 µM (CDK7H; compound at 10 μM, read-out: % remaining enzymatic activity at 10 μM CDK7H) [%] | remaining activity at 10 µM (CDK9T1; compound at 10 μM, read-out: % remaining enzymatic activity at 10 μM CDK9T1) [%] | SMILES
10 | 3010 ± 705 | > 5000 | 980 | 24 | > 5000 | 750 ± 246 | 1820 | > 5000 |  |  | CCc1nc(C)c(-c2ccnc(Nc3ccc(N4CCN(C)CC4)cn3)n2)s1 [Compound 8, 4-(2-ethyl-4-methylthiazol-5-yl)-N-(5-(4-methylpiperazin-1-yl)pyridin-2-yl)pyrimidin-2-amine]
11 | 1050 ± 203 | 4690 | 4 | 1 | 1730 | 649 ± 24 | 60 | 1440 |  |  | Cc1nc(C(C)C)sc1-c1ccnc(Nc2ccc(N3CCOCC3)cn2)n1 [Compound 17, 4-(2-isopropyl-4-methylthiazol-5-yl)-N-(5-morpholinopyridin-2-yl)pyrimidin-2-amine]
12 | 914 ± 98 | > 5000 | 27 | 70 | > 5000 | 500 ± 247 | > 5000 | > 5000 |  |  | Cc1nc(C)c(-c2nc(Nc3ccc(N4CCN(C)CC4)cn3)ncc2C#N)s1 [Compound 5, 4-(2,4-dimethylthiazol-5-yl)-2-((5-(4-methylpiperazin-1-yl)pyridin-2-yl)amino)pyrimidine-5-carbonitrile]
13 | 703 ± 71 | > 5000 | 30 | 11 | > 5000 | 29 ± 19 | 241 | 3740 |  |  | Cc1nc(C(C)C)sc1-c1ccnc(Nc2ccc(N3CCNCC3)cn2)n1 [Compound 13, 4-(2-isopropyl-4-methylthiazol-5-yl)-N-(5-(piperazin-1-yl)pyridin-2-yl)pyrimidin-2-amine]
14 | 542 ± 65 | > 5000 | 25 | 5 | > 5000 | 63 ± 26 | 465 | 3100 |  |  | CCN1CCN(c2ccc(Nc3nccc(-c4sc(C(C)C)nc4C)n3)nc2)CC1 [Compound 15, N-(5-(4-ethylpiperazin-1-yl)pyridin-2-yl)-4-(2-isopropyl-4-methylthiazol-5-yl)pyrimidin-2-amine]
15 | 514 ± 50 | > 5000 | 20 | 5 | > 5000 | 537 ± 117 | 75 | > 5000 |  |  | CC(=O)N1CCN(c2ccc(Nc3nccc(-c4sc(SC(C)C)nc4C)n3)nc2)CC1 [Compound 25, 1-(4-(6-((4-(2-(isopropylthio)-4-methylthiazol-5-yl)pyrimidin-2-yl)amino)pyridin-3-yl)piperazin-1-yl)ethan-1-one]
16 | 461 ± 59 | > 5000 | 200 | 30 | > 5000 | 73 ± 25 | 180 | > 5000 |  |  | Cc1nc(SC(C)C)sc1-c1ccnc(Nc2ccc(N3CCNCC3)cn2)n1 [Compound 23, 4-(2-(isopropylthio)-4-methylthiazol-5-yl)-N-(5-(piperazin-1-yl)pyridin-2-yl)pyrimidin-2-amine]
17 | 166 ± 117 | > 5000 | 394 | 28 | > 10000 | 418 ± 23 | 775 | > 5000 |  |  | CCN1CCN(Cc2ccc(Nc3nccc(-c4sc(C(C)C)nc4C)n3)nc2)CC1 [Compound 18, N-(5-((4-ethylpiperazin-1-yl)methyl)pyridin-2-yl)-4-(2-isopropyl-4-methylthiazol-5-yl)pyrimidin-2-amine]
